{"source": "ChEMBL document CHEMBL1133788", "about": "“Structure--activity relationships of side-chain modified didemnins” (Bioorg Med Chem Lett, 2001)", "type_in_all_cases": "functional", "key": {"[1]": {"assay": "Lethal concentration for inhibitory activity evaluated in NCI-60 tumor cell screen", "details": "human"}, "[2]": {"assay": "Total Growth inhibitory activity evaluated in NCI-60 tumor cell screen", "details": "Homo sapiens"}, "[3]": {"assay": "Growth inhibitory activity evaluated in NCI-60 tumor cell screen", "details": "Homo sapiens"}}}
{"smiles": "CC[C@H](C)[C@H]1NC(=O)[C@@H](NC(=O)[C@@H](CC(C)C)N(C)C(=O)[C@H]2C=CCN2)[C@@H](C)OC(=O)[C@H](Cc2ccc(OC)cc2)N(C)C(=O)[C@@H]2CCCN2C(=O)[C@H](CC(C)C)NC(=O)[C@@H](C)C(=O)[C@H](C(C)C)OC(=O)C[C@@H]1O", "values": [{"measurement": "LC50", "setting": "[1]", "value": 7000, "unit": "nM"}, {"measurement": "TGI", "setting": "[2]", "value": 39, "unit": "nM"}, {"measurement": "GI50", "setting": "[3]", "value": 3, "unit": "nM"}]}
{"smiles": "CC[C@H](C)[C@H]1NC(=O)[C@@H](NC(=O)[C@@H](CC(C)C)N(C)C(=O)[C@@H]2C=CCN2C(=O)[C@@H](C)O)[C@@H](C)OC(=O)[C@H](Cc2ccc(OC)cc2)N(C)C(=O)[C@@H]2CCCN2C(=O)[C@H](CC(C)C)NC(=O)[C@@H](C)C(=O)[C@H](C(C)C)OC(=O)C[C@@H]1O", "values": [{"measurement": "LC50", "setting": "[1]", "value": 83, "unit": "nM"}, {"measurement": "TGI", "setting": "[2]", "value": 20, "unit": "nM"}, {"measurement": "GI50", "setting": "[3]", "value": 2.8, "unit": "nM"}]}
{"smiles": "CC[C@H](C)[C@H]1NC(=O)[C@@H](NC(=O)[C@@H](CC(C)C)N(C)C[C@@H]2CCCN2C(=O)[C@@H](C)O)[C@@H](C)OC(=O)[C@H](Cc2ccc(OC)cc2)N(C)C(=O)[C@@H]2CCCN2C(=O)[C@H](CC(C)C)NC(=O)[C@@H](C)C(=O)[C@H](C(C)C)OC(=O)C[C@@H]1O", "values": [{"measurement": "LC50", "setting": "[1]", "value": 3000, "unit": "nM"}, {"measurement": "TGI", "setting": "[2]", "value": 76, "unit": "nM"}, {"measurement": "GI50", "setting": "[3]", "value": 4, "unit": "nM"}]}
{"smiles": "CC[C@H](C)[C@H]1NC(=O)[C@@H](NC(=O)[C@@H](CC(C)C)N(C)C(=O)CNC(=O)Cc2cc(=O)oc3cc(N(C)C)ccc23)[C@@H](C)OC(=O)[C@H](Cc2ccc(OC)cc2)N(C)C(=O)[C@@H]2CCCN2C(=O)[C@H](CC(C)C)NC(=O)[C@@H](C)C(=O)[C@H](C(C)C)OC(=O)C[C@@H]1O", "values": [{"measurement": "LC50", "setting": "[1]", "value": 7200, "unit": "nM"}, {"measurement": "TGI", "setting": "[2]", "value": 20.5, "unit": "nM"}, {"measurement": "GI50", "setting": "[3]", "value": 11, "unit": "nM"}]}
{"smiles": "CC[C@H](C)[C@H]1NC(=O)[C@@H](NC(=O)[C@@H](CC(C)C)N(C)C(=O)C2CCCN2)[C@@H](C)OC(=O)[C@H](Cc2ccc(OC)cc2)N(C)C(=O)[C@@H]2CCCN2C(=O)[C@H](CC(C)C)NC(=O)[C@@H](C)C(=O)[C@H](C(C)C)OC(=O)C[C@@H]1O", "note": "(stereo not given in full)", "values": [{"measurement": "LC50", "setting": "[1]", "value": 210, "unit": "nM"}, {"measurement": "TGI", "setting": "[2]", "value": 12, "unit": "nM"}, {"measurement": "GI50", "setting": "[3]", "value": 0.62, "unit": "nM"}]}
